Data taken from patent US20160228452A1, “TREATMENT OF METABOLIC DISEASES BY INHIBTION OF HTR2A OR HTR3” (Korea Advanced Institute of Science and Technology, priority 2014, published 2016).
Entries after “also recorded” stand apart in the source; their conditions may differ.

Columns and labels:
[1] = tested on: SV cells from Tph1 FKO mice; test: Ex vivo differentiation of SVF from BAT of Tph1 FKO mice, Ucp1 mRNA; format: cell-based; conditions: after 8 days of differentiation
Description: The stromal vascular fraction of epididymal, inguinal and BAT from 6- to 7-week-old mice was separated by collagenase digestion. Briefly, the adipose tissues were dissected, minced and digested with 0.2% collagenase A (Roche) in Hank's balanced salts solution (Sigma) for 45 min at 37° C. with constant shaking. Mature adipocytes and connective tissues were separated from the cell pellet by centrifugation at 800×g for 10 min at 4° C. The cell pellet was then suspended with RBC lysis buffer (Sigma) and filtered through a 40-μm mesh filter (BD bioscience). The pelleted stromal vascular cells (SVCs) were re-suspended in DMEM containing 10% FBS and seeded in 6-well plates for adipogenic differentiation.
(§1) Total RNA was extracted from the mouse tissues or cell lines using TRIzol reagent (Invitrogen) according to the manufacturer's protocol. After TURBO DNase (Invitrogen) treatment, 2 μg of total RNA was used to generate complementary DNA with Superscript III reverse transcriptase (Invitrogen). To analyze gene expression, real-time PCR was performed with a ViiA 7 Real-Time PCR system (Applied Biosystems) and the Power SYBR Green PCR master mix (Applied Biosystems). Relative quantification was based on the ddCt method, and ActB was used as an endogenous control (internal control).

Htr2a [2] = biological target: T1, Htr2a (Mus musculus, UniProt P35363); test: Glycerol release assay (lipolysis) in 3T3-L1 mature adipocytes; format: cell-based, murine; conditions: 24 h
Description: (§2) Murine 3T3-L1 cells (American Type Culture Collection) were cultured in DMEM supplemented with 10% fetal calf serum and 100 μg/mL P/S in a humidified atmosphere of 5% CO2 at 37° C. Two days after reaching confluence, the cells were induced to differentiate using medium supplemented with 0.5 mM IBMX, […] and 1 μM dexamethasone (day 0). After two days, the medium was replaced with DMEM supplemented with […] in 10% FBS and P/S (day 2), and it was changed every two days from days 4 to 8.
Lipolysis was measured as the rate of glycerol release using a free glycerol reagent (Sigma) following the manufacturer's protocol. Briefly, fully differentiated 3T3-L1 adipocytes in a 24-well plate were incubated with 5-HT or DOI in Krebs Ringer phosphate buffer (136 mM NaCl, 4.7 mM KCl, 10 mM NaPO4, 0.9 mM MgSO4, and 0.9 mM CaCl2) containing 4% fatty acid-free bovine serum albumin (Sigma) for 24 h. Isoproterenol was used as a positive control. After incubation, 10 μL of the cell culture supernatant was mixed with 0.8 mL of the free glycerol reagent, and the mixture was then incubated at 37° C. for 5 min. The absorbance of the sample was determined at 540 nm using a spectrophotometer (DU730 Life Science UV/Vis, Beckman Coulter, Indianapolis, Ind., USA). The amount of released glycerol was expressed relative to the cellular protein content.

Htr2a [3] = biological target: T1, Htr2a; test: Real-time PCR of lipogenic genes in 3T3-L1 mature adipocytes; format: cell-based, murine
Description: as §2, §1

Htr3 [4] = biological target: T2, Htr3 (Mus musculus, UniProt P23979); test: OCR assay (Seahorse XF24) in IBAs; format: cell-based; conditions: fully differentiated IBAs pretreated 30 min, then β3 agonist CL-316243
T2 construct: we explored the direct actions of Htr3 on BAT using immortalized brown adipocytes (IBAs); endogenous in cells; host or cells: differentiated immortalized brown adipocytes (IBAs)
T2 sequence (P23979 24-489): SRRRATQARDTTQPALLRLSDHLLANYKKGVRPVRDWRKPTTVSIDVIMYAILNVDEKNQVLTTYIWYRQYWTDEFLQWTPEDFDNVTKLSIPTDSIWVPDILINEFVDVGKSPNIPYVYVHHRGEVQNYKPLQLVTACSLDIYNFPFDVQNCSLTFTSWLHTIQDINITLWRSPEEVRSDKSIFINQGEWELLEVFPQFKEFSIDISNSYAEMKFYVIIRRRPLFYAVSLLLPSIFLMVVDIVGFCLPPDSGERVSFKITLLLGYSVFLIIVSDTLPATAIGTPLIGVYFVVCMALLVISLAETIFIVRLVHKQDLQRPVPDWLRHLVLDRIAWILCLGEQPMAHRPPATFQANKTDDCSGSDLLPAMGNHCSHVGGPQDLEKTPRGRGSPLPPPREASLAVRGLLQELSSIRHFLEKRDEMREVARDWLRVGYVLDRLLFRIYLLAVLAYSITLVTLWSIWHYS
T2 sequence (Q9JHJ5 22-437 partner): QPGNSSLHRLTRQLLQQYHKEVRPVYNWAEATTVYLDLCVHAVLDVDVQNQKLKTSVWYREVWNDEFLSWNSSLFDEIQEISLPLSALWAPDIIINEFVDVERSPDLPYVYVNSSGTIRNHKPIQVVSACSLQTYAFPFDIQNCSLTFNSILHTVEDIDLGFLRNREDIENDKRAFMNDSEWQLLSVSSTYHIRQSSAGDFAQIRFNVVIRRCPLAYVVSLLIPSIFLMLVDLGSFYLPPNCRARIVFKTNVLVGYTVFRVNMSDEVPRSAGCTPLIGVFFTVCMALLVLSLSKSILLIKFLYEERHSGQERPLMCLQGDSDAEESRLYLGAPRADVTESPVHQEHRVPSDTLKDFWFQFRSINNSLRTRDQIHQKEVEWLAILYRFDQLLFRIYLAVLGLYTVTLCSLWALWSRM
Description: IBAs were cultured in DMEM supplemented with 10% FBS and P/S in a humidified atmosphere of 5% CO2 at 37° C.^32. After reaching 95% confluence, the cells were induced to differentiate using DMEM with 10% FBS, 0.5 μg/mL insulin, 1 nM T3, 0.125 mM indomethacin, 2 μg/mL dexamethasone, 0.5 μM IBMX and P/S (day 0). After two days, the medium was replaced with DMEM supplemented with 10% FBS, 0.5 μg/mL insulin, 1 nM T3 and P/S (day 2), and it was changed every two days from days 4 to 8. […] The OCRs of the cells were measured using a Seahorse XF analyzer (Seahorse Bioscience, Billerica, Mass., USA). After seeding IBAs on an XF-24 plate, the cells were incubated and differentiated using the protocol described above. Fully differentiated IBAs were pre-treated with PBS and ondansetron for 30 min. Then, the IBAs were treated with the β3 agonist (CL-316243) and the mitochondrial inhibitors oligomycin and rotenone/antimycin. The OCRs were calculated and recorded by a sensor cartridge and the Seahorse XF-24 software.

Htr3 [5] = biological target: T2, Htr3; test: Western blot for phosphorylation of PKA pathway components in IBAs; format: cell-based; conditions: IBAs pretreated with ondansetron, in the presence of β3-adrenergic receptor agonist
Description: (§3) IBAs were cultured in DMEM supplemented with 10% FBS and P/S in a humidified atmosphere of 5% CO2 at 37° C.^32. After reaching 95% confluence, the cells were induced to differentiate using DMEM with 10% FBS, 0.5 μg/mL insulin, 1 nM T3, 0.125 mM indomethacin, 2 μg/mL dexamethasone, 0.5 μM IBMX and P/S (day 0). After two days, the medium was replaced with DMEM supplemented with 10% FBS, 0.5 μg/mL insulin, 1 nM T3 and P/S (day 2), and it was changed every two days from days 4 to 8. We confirmed that these cell lines are free from Mycoplasma infection.
Whole-cell lysates were extracted by incubating cells in RIPA buffer (25 mM Tris-HCl pH 7.6, 150 mM NaCl, 1% NP-40, 1% sodium deoxycholate, 0.1% SDS) plus protease inhibitors (Roche). Supernatant was collected following a brief centrifuge, and protein concentrations in the supernatant were determined using the BCA Protein Assay Kit (Thermo Scientific, Rockford, Ill., USA). The cell lysates were then mixed with equal volumes of 2× Laemmli buffer (4% SDS, 20% glycerol, 10% 2-mercaptoethanol, 0.01% bromophenol blue, and 120 mM Tris-HCl, pH 6.8) and boiled for 5 min at 95° C. Then, the protein samples were separated by SDS-PAGE and transferred to a PVDF membrane (Millipore). […]

Htr3 [6] = biological target: T2, Htr3; test: Real-time PCR of thermogenic genes in IBAs; format: cell-based; conditions: 2 h after ondansetron treatment
Description: as §3, §1

Htr3 [7] = biological target: T2, Htr3; test: cAMP assay (competitive ELISA) in immortalized brown adipocytes; format: cell-based
Description: as §3
Differentiated IBAs were treated with 1 uM ondansetron or 100 nM m-CPBG or 1 uM CL-316243 for 15 min. 1 uM […] was used as a positive control. The cAMP competitive ELISA (Promega) was performed according to the manufacturer's instruction. Briefly, cAMP was extracted by adding 0.1 M HCl with 0.5% triton X-100 to the cells. After centrifugation at 600 g for 10 min, the supernatant was used for the determination of cAMP levels by competitive cAMP ELISA.

Htr2a [8] = biological target: T1, Htr2a; test: Oil Red O staining of 3T3-L1 adipocytes; format: cell-based, murine; conditions: treatment during differentiation, absorbance at 520 nm
Description: Murine 3T3-L1 cells (American Type Culture Collection) were cultured in DMEM supplemented with 10% fetal calf serum and 100 μg/mL P/S in a humidified atmosphere of 5% CO2 at 37° C. Two days after reaching confluence, the cells were induced to differentiate using medium supplemented with 0.5 mM IBMX, 1 mg/mL insulin and 1 μM dexamethasone (day 0). After two days, the medium was replaced with DMEM supplemented with 1 mg/mL insulin in 10% FBS and P/S (day 2), and it was changed every two days from days 4 to 8. After full differentiation (day 8), 3T3-L1 adipocytes were fixed with 3.7% (w/v) formaldehyde in PBS for 15 min at room temperature and then washed three times with PBS. Then, the cells were stained with filtered Oil Red 0 solution (1.5 mg/mL 60% (v/v) isopropanol) for 30 min and then rinsed twice with distilled water. To quantify the amount of Oil Red 0 staining, the cells were eluted with 100% isopropranol for 10 min, and the absorbance densities of the extracts were measured at 520 nm using a VersaMax microplate reader (Molecular Devices, Sunnyvale, Calif., USA).

T1 sequence (P35363 whole entry): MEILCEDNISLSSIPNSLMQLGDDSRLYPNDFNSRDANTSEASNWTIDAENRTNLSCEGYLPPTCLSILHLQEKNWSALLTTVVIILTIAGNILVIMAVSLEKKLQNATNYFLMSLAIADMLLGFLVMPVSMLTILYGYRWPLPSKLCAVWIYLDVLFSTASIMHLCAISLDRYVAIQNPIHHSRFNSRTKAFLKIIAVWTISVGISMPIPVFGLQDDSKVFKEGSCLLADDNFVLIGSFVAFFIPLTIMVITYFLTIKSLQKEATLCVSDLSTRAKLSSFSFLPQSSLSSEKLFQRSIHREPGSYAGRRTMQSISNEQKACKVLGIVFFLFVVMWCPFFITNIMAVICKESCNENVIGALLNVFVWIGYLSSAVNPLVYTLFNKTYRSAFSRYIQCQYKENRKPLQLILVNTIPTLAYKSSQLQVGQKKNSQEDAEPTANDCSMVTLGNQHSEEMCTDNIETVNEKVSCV

With `NCCc1c[nH]c2ccc(O)cc12` [5-HT, 5-hydroxytryptamine] the “Ucp1 mRNA level” value [1] was “abrogated; also recorded: suppressed” and the “glycerol release (lipolysis)” value (Htr2a [2]) was “suppressed lipolysis; also recorded: reduced the glycerol release”.
For `COc1cc(CC(C)N)c(OC)cc1I` (stereo not shown) [DOI, 2,5-dimethoxy-4-iodoamphetamine], the “glycerol release (lipolysis)” value (Htr2a [2]) was “suppressed lipolysis; also recorded: reduced the glycerol release” and the “mRNA levels of lipogenic genes” value (Htr2a [3]) was “increased”.
For `Cc1nccn1CC1CCc2c(c3ccccc3n2C)C1=O` (racemic) [ondansetron, (RS)-9-methyl-3-[(2-methyl-1H-imidazol-1-yl)methyl]-2,3-dihydro-1H-carbazol-4(9H)-one], the “oxygen consumption rate (OCR)” value (Htr3 [4]) was “increased the OCR synergistically; also recorded: increased the oxygen consumption rate”, the “phosphorylation of HSL and PKA substrate (PKA pathway components) after β3AR stimulation” value (Htr3 [5]) was “increased phosphorylation” and the “mRNA expression of thermogenic genes (Ucp1, Ppargc1a)” value (Htr3 [6]) was “increased”. The “cAMP level after β3AR stimulation” value (Htr3 [7]; IBAs pretreated with 1 uM ondansetron, in the presence of β3-adrenergic receptor agonist CL 316243) was “increased cAMP levels” and the “cAMP level in the absence of β3AR agonist” value (Htr3 [7]; IBAs, 1 uM ondansetron or 100 nM m-CPBG, 15 min) was “did not affect cAMP levels”.
With `O=C(c1ccc(F)cc1)C1CCN(CCn2c(=O)[nH]c3ccccc3c2=O)CC1` [ketanserin, 3-{2-[4-(4-fluorobenzoyl)piperidin-1-yl]ethyl}quinazoline-2,4(1H,3H)-dione] the “lipogenesis (optical density of Oil Red O extract)” value (Htr2a [8]) was “decreased lipogenesis; also recorded: reduced the optical density of the extract”.
